Data published in patent publication US9452985B2, “Tau imaging probe” (GE Healthcare Limited, priority 2010, dated 2016).
Read-outs that look alike come from different tables or passages of the source. One block for each compound: values may come before it.

Columns and labels:
K18-ΔK280 aggregates = K18-ΔK280 aggregates (Homo sapiens (Human), UniProt P10636, DEL597-597); assay: Competitive binding test using [^18F] THK-5105 as radioactive competitor; conditions: radioactive ligand [^18F] THK-5105 1.76 nM, K18-ΔK280 aggregates 200 nM, room temperature, one hour
K18-ΔK280 aggregates, sequence (P10636 other isoform, or with tags, fused parts or gaps del 597-597): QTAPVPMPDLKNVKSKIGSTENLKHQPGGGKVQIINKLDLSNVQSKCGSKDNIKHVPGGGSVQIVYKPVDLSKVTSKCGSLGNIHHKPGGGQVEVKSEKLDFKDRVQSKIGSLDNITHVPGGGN
Description: Regarding the binding of tau imaging probes to tau protein aggregates, a binding test was carried out and evaluated using a K18-ΔK280 construct which contained a 4-repeat structure involved in the formation of beta-sheet structures in the htau40 protein. For K18-ΔK280 (Martin von Bergen et al., THE JOURNAL OF BIOLOGICAL CHEMISTRY (2001), vol. 276, pp. 48165-48174; M. Goedert et al., NEURON (1989), vol. 3, pp. 519-526), an artificial gene fragment which was prepared based on its amino acid sequence was cloned into a pET-3a vector, the resulting plasmid was used to transform Escherichia coli BL21 (DE3) competent cells for protein expression, and the recombinant Escherichia coli cell was cultured to express K18-ΔK280. The K18-ΔK280 expressed was purified according to the method described in the literature (Stefan Barghorn et al., Methods in Molecular Biology, vol. 299, pp. 35-51). In the binding test, aggregates of the purified K18-ΔK280 were made and used.
K18-ΔK280 aggregates were made by preparing 20 μM PBS (pH 7.4) and incubating the K18-ΔK280 in the PBS at 37° C. for 4 days. The state where beta-sheet structures in K18-ΔK280 aggregates were formed was ascertained by thioflavin S fluorescence binding test. The aggregates solution was diluted to 400 nM in assay buffer (PBS, 0.1% BSA) and used in the binding test.
For tau imaging probes other than THK-5105, binding to K18-ΔK280 aggregates was evaluated with a competitive binding test using [^18F] THK-5105 as a radioactive competitor. In the binding test, [^18F] THK-5105 (at a final concentration of 1.76 nM) and a tested compound (at final concentrations of from 0.1 to 1000 nM) coexisted in the reaction system, to which K18-ΔK280 aggregates (at a final concentration of 200 nM) was then added and the mixtures were incubated at room temperature for one hour. The radioactivity of [^18F] THK-5105 binding to the aggregates was determined in a similar way as in the saturation binding test of THK-5105. The percentage of [^18F] THK-5105 bonding in the absence of each tested compound was set to be 100%, and percentages of [^18F] THK-5105 bonding at various concentrations of each of the tested compounds were determined.

[1] = tested on: neurofibrillary tangles (tau protein); assay: Autoradiography test with [^18F] BF-227 and [^18F] THK-5035 on brain section of Alzheimer's disease patients; type: binding, human; conditions: approximately 400 μCi/ml, 10 minutes
Description: After the paraffin-embedded brain section of Alzheimer's disease patients was deparaffinized, it was immersed in PBS for 10 minutes. Approximately 400 μCi/ml of [^18F] BF-227 and [^18F] THK-5035 were dropped on the section to react for 10 minutes at room temperature. It was immersed in distilled water for 2 minutes, shaken in 50% EtOH lightly for 2 minutes, immersed again in distilled water for 2 minutes, and dried in a paraffin extension device. The section was contacted on an imaging plate and settled overnight, and the next day, the images were read with a BAS5000 (Fujifilm Corporation). Furthermore, the serial section was immunostained with thioflavine-S staining and anti-tau antibody (AT8).

[2] = data taken from Zhang et al. 2005 / Choi et al. 2009, cited from earlier work; for % ID/g 2 minutes post-administration / % ID/g 60 minutes post-administration: brain; for 2 minutes post-administration/60 minutes post-administration: quotient of brain % ID/g values
neurofibrillary tangles = assay: Staining test on brain section of Alzheimer's disease patients; type: binding, human; conditions: 100 μM solution in 50% ethanol, 10 minutes, fluorescence microscope
Excerpt: The procedure of staining test on the compounds of the present invention on the brain section of Alzheimer's disease patients is described below:
(1) We used the brain specimens of the temporal lobe or hippocampus from patients who were definitely diagnosed as having Alzheimer's disease pathology. The specimens were obtained from Choju Medical Institute, Fukushimura Hospital, our collaborating research institute, and the consent for use for research purposes was obtained from the patients' bereaved family (Fukushimura Hospital, Ethics Committee Approval No. 20).
(2) The paraffin-embedded brain tissue was sliced to 6 or 8 μm thickness, extended on a slide glass, and dried. The paraffinized brain section was deparaffinized by washing with xylene for 10 minutes×2, 100% ethanol for 5 minutes×2, 90% ethanol for 5 minutes, and running water for 10 minutes in this order.
(3) As a pretreatment for staining with the compounds of the present invention, the treatment to remove autofluorescence with lipofuscin was performed. First, the paraffinized brain section was immersed in 0.25% KMnO4 solution for 20 minutes. It was washed with PBS for 2 minutes twice, immersed in a 0.1% K2S2O5/oxalic acid solution for approximately 5 minutes, and further washed with PBS for 2 minutes 3 times.
(4) From 100 μM solution of the compounds of the present invention dissolved in 50% ethanol, approximately 150 μl was dropped on the section to react for 10 minutes. After being immersed in tap water 5 times, it was mounted with Flour Save Reagent (Calbiochem) and examined with a fluorescence microscope (Nikon, ECLIPSE 80i). The images were taken with a digital camera (Nikon, Dxin1200F or Photometrics, Cool SNAP ES).

[3] = Evaluation of brain delivery of [^18F] THK-5105, [^18F] THK-5117 and [^18F] THK-5125 in mice; type: in vivo, male ICR mice; conditions: for delivery to and washout from the brain / % ID/g 2 minutes post-administration: mice; for delivery to and washout from the brain: compared with [^18F] BAY94-9172, [^18F] AV-45 and [^18F] FDDNP; for % ID/g 2 minutes post-administration: tail vein, brain; for 2 minutes post-administration/60 minutes post-administration: quotient of brain % ID/g values
Description: A physiological saline solution containing [^18F] THK-5105, [^18F] THK-5117, or [^18F] THK-5125 was administered into the tail vein of male ICR mice (6 to 7 weeks old), and brain delivery of these label compounds was assessed from the accumulation of radioactivity in brain and plasma tissues at two minutes post-injection.
As an index in the evaluation of radioactive accumulation, use was made of the percentage of radioactivity per unit weight of brain relative to the total radioactivity administered (% Injected Dose/g of tissue; % ID/g). For measurement of radioactivity, a gamma counter (1480 WIZARD, Perkin Elmer) was used. Experimental procedures were as follows. A label compound was administered into the tail vein of mice. Two minutes later, each mouse was subjected to cervical dislocation under ether anesthesia, and the whole brain, including the cerebellum and brain stem, was isolated immediately. The radioactivity and tissue weight of the sample were measured, and their data were used to calculate a % ID/g values for the labeled compound.

[4] = tested on: neurofibrillary tangles (tau protein); assay: Autoradiography experiments using [^18F] THK-5105, [^18F] THK-5117 and [^18F] THK-5125; type: binding, human; conditions: for affinity to neurofibrillary tangles (tau protein), autoradiography / accumulation in autoradiography of sections of the lateral temporal cortex and of the medial temporal cortex: Alzheimer's disease patient brain sections; for accumulation in autoradiography of sections of the lateral temporal cortex and of the medial temporal cortex: approximately 400 μCi/ml, 10 minutes
Description: Paraffin-embedded sections of the brain from an Alzheimer's disease patient were deparaffinized, and then immersed in PBS for 10 minutes. Approximately 400 μCi/ml of each of [^18F] THK-5105, [^18F] THK-5117, and [^18F] THK-5125 was added dropwise to deparaffinized sections and allowed to react for 10 minutes at room temperature. After that, the sections were immersed in distilled water for 2 minutes, shaken lightly in 50% EtOH for 2 minutes, immersed again in distilled water for 2 minutes, and dried in a paraffin stretching device. The section was left overnight in contact with an imaging plate. Next day, the image was read with a BAS 5000 (Fujifilm Corporation). In addition, adjacent sections were immunostained with anti-phosphorylated tau antibody (AT8).

[5] = Evaluation of brain delivery of [^18F] THK-5105, [^18F] THK-5117 and [^18F] THK-5125 in mice; type: in vivo, male ICR mice; conditions: tail vein

Ki (K18-ΔK280 aggregates): 34.9 nM
Compound: CCN(CC)c1ccc(-c2ccc3cc(OCC(O)CF)ccc3n2)cc1 (stereo not drawn) [THK-5122, 6-[(3-fluoro-2-hydroxy)propoxy]-2-(4-diethylaminophenyl)quinoline]

Compound: CN(C)c1ncc(C=Cc2nc3ccc(OCCF)cc3o2)s1 [[^18F] BF-227]
accumulation in the region where [^18F] THK-5035 was accumulated (anti-tau antibody positive region), autoradiography [1]: no accumulation

Ki (K18-ΔK280 aggregates): 21.4 nM
Compound: CN(C)c1ccc(-c2ccc3cc(OCC(O)CF)ccc3n2)cn1 (stereo not drawn) [THK-5129, 6-[(3-fluoro-2-hydroxy)propoxy]-2-(2-dimethylaminopyrid-5-yl)quinoline]

Ki (K18-ΔK280 aggregates): 9.2 nM
Compound: CCNc1ccc(-c2ccc3cc(OCC(O)CF)ccc3n2)cc1 (stereo not drawn) [THK-5125, 2-(4-ethylaminophenyl)-6-[(3-fluoro-2-hydroxy)propoxy]quinoline]

Compound: CC(=C(C#N)C#N)c1ccc2cc(N(C)CCF)ccc2c1 [FDDNP, reference compound]
Ki (K18-ΔK280 aggregates): 256 nM

Compound: CNc1ccc(/C=C/c2ccc(OCCOCCOCC[18F])cc2)cc1 [[^18F]BAY94-9172]
% ID/g 2 minutes post-administration [2]: 7.77 % ID/g
% ID/g 60 minutes post-administration [2]: 1.61 % ID/g
2 minutes post-administration/60 minutes post-administration [2]: 4.83

Ki (K18-ΔK280 aggregates): 10.5 nM
Compound: CNc1ccc(-c2ccc3cc(OCC(O)CF)ccc3n2)cc1 (stereo not drawn) [THK-5117, 6-[(3-fluoro-2-hydroxy)propoxy]-2-(4-methylaminophenyl)quinoline]
binding to neurofibrillary tangles in the brain section of Alzheimer's disease patients (staining test) (neurofibrillary tangles): bind to neurofibrillary tangles specifically and selectively

Compound: CNc1ccc(-c2ccc3cc(OCC(O)C[18F])ccc3n2)cc1 (stereo not drawn) [[^18F] THK-5117]
delivery to and washout from the brain [3]: superior in being delivered to and washed out from the brain
% ID/g 2 minutes post-administration [3]: 6.06 % ID/g
2 minutes post-administration/60 minutes post-administration [3]: 23.3
affinity to neurofibrillary tangles (tau protein), autoradiography [4]: high affinity to neurofibrillary tangles (tau protein)
accumulation in autoradiography of sections of the lateral temporal cortex and of the medial temporal cortex [4]: accumulated in the lateral temporal cortex and medial temporal cortex
% ID/g 60 minutes post-administration [5]: 0.26 % ID/g

Compound: CNc1ccc(/C=C/c2ccc(OCCOCCOCC[18F])nc2)cc1 [[^18F]AV-45]
% ID/g 2 minutes post-administration [2]: 7.33 % ID/g
% ID/g 60 minutes post-administration [2]: 1.88 % ID/g
2 minutes post-administration/60 minutes post-administration [2]: 3.90

Ki (K18-ΔK280 aggregates): 59.3 nM
Compound: Nc1ccc(-c2ccc3cc(OCCF)ccc3n2)cc1 [THK-523, reference compound]

Ki (K18-ΔK280 aggregates): 40.1 nM
Compound: CNc1ccc(-c2ccc3cc(OCC(O)CF)ccc3n2)cn1 (stereo not drawn) [THK-5151, 2-(2-methylaminopyrid-5-yl)-6-[(3-fluoro-2-hydroxy)propoxy]quinoline]

Compound: CC(=C(C#N)C#N)c1ccc2cc(N(C)CCF)ccc2c1 [[^18F]FDDNP, reference compound]
% ID/g 2 minutes post-administration [3]: 6.23 % ID/g
2 minutes post-administration/60 minutes post-administration [3]: 2.91
% ID/g 60 minutes post-administration [5]: 2.14 % ID/g

% ID/g 2 minutes post-administration [3]: 9.20 % ID/g
2 minutes post-administration/60 minutes post-administration [3]: 9.20
% ID/g 60 minutes post-administration [5]: 1.00 % ID/g
Compound: CN(C)c1ccc(-c2ccc3cc(OC[C@H](O)C[18F])ccc3n2)cc1 [[^18F] THK-5105]
delivery to and washout from the brain [3]: superior in being delivered to and washed out from the brain
affinity to neurofibrillary tangles (tau protein), autoradiography [4]: high affinity to neurofibrillary tangles (tau protein)
accumulation in autoradiography of sections of the lateral temporal cortex and of the medial temporal cortex [4]: accumulated in the lateral temporal cortex and medial temporal cortex
correspondence of autoradiography / unlabeled staining image with anti-phosphorylated tau antibody (AT8) immunostaining ([4]; hippocampus section and adjacent sections, higher magnification images): corresponded well with the image of immunostaining with the anti-phosphorylated tau antibody

Ki (K18-ΔK280 aggregates): 36 nM
Compound: Nc1ccc(-c2ccc3cc(OCC(O)CF)ccc3n2)cc1 (stereo not drawn) [THK-5116, 2-(4-aminophenyl)-6-[(3-fluoro-2-hydroxy)propoxy]quinoline]
binding to neurofibrillary tangles in the brain section of Alzheimer's disease patients (staining test) (neurofibrillary tangles): bind to neurofibrillary tangles specifically and selectively
